Experimental data published in US6747044B2, “Neurokinin antagonists” (Boehringer Ingelheim Pharma KG, priority 2000, dated 2004).

target: T1, NK1 receptor (Cavia porcellus, UniProt P30547); experiment: Inhibition of NK1-induced fall in blood pressure in anaesthetised guinea pigs (duration of activity); type: in vivo, guinea pig; details: test substance intraduodenal, NK1-agonist 0.2 μmol/kg i.v. every 30 min for 6 to 8 hours
T1 construct: Guinea pigs (300-500 g) were anaesthetised with pentobarbital (50 mg/kg i.p.); from tissue; host or cells: whole anaesthetised guinea pig (in vivo)
T1 sequence (P30547 whole entry): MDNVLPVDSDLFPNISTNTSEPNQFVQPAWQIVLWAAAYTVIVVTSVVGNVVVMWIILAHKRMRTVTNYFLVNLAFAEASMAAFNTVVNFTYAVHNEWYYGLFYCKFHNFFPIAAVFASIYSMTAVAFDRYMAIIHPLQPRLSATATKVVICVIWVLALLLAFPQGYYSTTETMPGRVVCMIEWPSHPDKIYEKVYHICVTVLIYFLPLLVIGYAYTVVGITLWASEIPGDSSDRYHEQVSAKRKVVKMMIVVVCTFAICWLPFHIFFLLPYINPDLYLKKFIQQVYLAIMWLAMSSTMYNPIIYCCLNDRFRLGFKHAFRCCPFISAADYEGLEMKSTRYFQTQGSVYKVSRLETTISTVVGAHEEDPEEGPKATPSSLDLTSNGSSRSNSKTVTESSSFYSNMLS
Description: Determining the Duration of Activity
Inhibition of NK1-induced Fall in Blood Pressure in Anaesthetised Guinea Pigs
Guinea pigs (300-500 g) were anaesthetised with pentobarbital (50 mg/kg i.p.) and prepared for duodenal administration of the test substances and for measurement of the arterial blood pressure. A temporary drop in blood pressure was induced by the intravenous administration of an NK1-agonist (0.2 μmol/kg at 30 minute intervals). After the basal value of the blood pressure had been determined the test substances were administered by intraduodenal route. Then the NK1-agonist was administered intravenously every 30 min for 6 to 8 hours. The results were expressed as a percentage inhibition in the NK1-induced fall in blood pressure and the ED50 values were calculated by regression analysis.

Row | SMILES | Duration of activity [min]
1 | CN(CCc1cc(C(F)(F)F)cc(C(F)(F)F)c1)C(=O)C(c1ccccc1)N1CCC(N(C)CCCO)CC1 (stereo not shown) [Example 1, N-[2-(3,5-Bis-trifluoromethyl-phenyl)-ethyl]-2-{4-[(3-hydroxy-propyl)-methyl-amino]-piperidine-1-yl}-N-methyl-2-phenyl-acetamide] | >360
2 | CN(CCc1cc(C(F)(F)F)cc(C(F)(F)F)c1)C(=O)C(c1ccccc1)N1CCC(NC(CO)CO)CC1 (stereo not shown) [Example 2, N-[2-(3,5-bis-trifluoromethyl-phenyl)-ethyl]-2-[4-(2-hydroxy-1-hydroxymethyl-ethylamino)-piperidin-1-yl]-N-methyl-2-phenylacetamide] | >360
3 | CN(CCc1cc(C(F)(F)F)cc(C(F)(F)F)c1)C(=O)C(c1ccccc1)N1CCC(N(C)CC2CC2)CC1 (stereo not shown) [Example 3, N-[2-(3,5-bis-trifluoromethyl-phenyl)-ethyl]-2-[4-(cyclopropylmethyl-methyl-amino)-piperidin-1-yl]-N-methyl-2-phenyl-acetamide] | >360
4 | CN(CCc1cc(C(F)(F)F)cc(C(F)(F)F)c1)C(=O)C(c1ccccc1)N1CCC(N(CCO)CCCO)CC1 (stereo not shown) [Example 4, N-[2-(3,5-bis-trifluoromethyl-phenyl)-ethyl]-2-{4-[(2-hydroxy-ethyl)-(3-hydroxy-propyl)-amino]-piperidin-1-yl}-N-methyl-2-phenyl-acetamide] | >360
5 | CN(CCc1cc(C(F)(F)F)cc(C(F)(F)F)c1)C(=O)[C@H](c1ccccc1)N1CCC(N(CCCO)CC2CC2)CC1 [Example 5, (S)—N-[2-(3.5-bis-trifluoromethyl-phenyl)-ethyl]-2-{4-[cyclopropylmethyl-(3-hydroxy-propyl)-amino]-piperidin-1-yl}-N-methyl-2-phenyl-acetamide] | >360
6 | CN(CCc1cc(C(F)(F)F)cc(C(F)(F)F)c1)C(=O)[C@H](c1ccccc1)N1CCC(N(C)CCO)CC1 [Example B-1, reference compound] | 120
7 | CN(CCc1cc(C(F)(F)F)cc(C(F)(F)F)c1)C(=O)[C@H](c1ccccc1)N1CCC(N(CCO)CCO)CC1 [Example B-4, reference compound] | 120
